Where a name gives a salt, the structure may show the parent alone.
Tested on: bacterial strains that express KPC β-lactamases
Assay: Synergy MIC / standard BLI potentiation MIC assay against strains expressing KPC β-lactamases
Type: cell-based
Conditions: in the presence of a β-lactam; comparator Avibactam
Procedure, shortened: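 Broth microdilution per modified CLSI M07-A9 in CAMHB, ~10^5 CFU/mL, 18-20 h at 37 °C with aeration; engineered E. coli carrying cloned β-lactamase plasmids kept in 25 μg/mL tetracycline. β-Lactam MIC read with BLI fixed at 4 μg/mL, or BLI serially diluted against fixed β-lactam; MIC = lowest concentration without visible turbidity.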

SMILES | more active than Avibactam for at least one bacterial strain that expresses KPC β-lactamase and/or better spectrum of activity against KPC strains
N=C(N)N[C@H]1C[C@@H](c2nnc([C@@H]3CC[C@@H]4CN3C(=O)N4OS(=O)(=O)O)s2)C1 [Compound 784, (2S,5R)-2-(5-((1s,3R)-3-guanidinocyclobutyl)-1,3,4-thiadiazol-2-yl)-7-oxo-1,6-diazabicyclo[3.2.1]octan-6-yl hydrogen sulfate] | more active than Avibactam
O=C1N2C[C@@H](CC[C@H]2c2nnc(CCN3CCNCC3)o2)N1OS(=O)(=O)O [Compound 776, (2S,5R)-7-oxo-2-(5-(2-(piperazin-1-yl)ethyl)-1,3,4-oxadiazol-2-yl)-1,6-diazabicyclo[3.2.1]octan-6-yl hydrogen sulfate] | more active than Avibactam
N=C(N)NCC1(c2nnc([C@@H]3CC[C@@H]4CN3C(=O)N4OS(=O)(=O)O)o2)CC1 [Compound 723, (2S,5R)-2-(5-(1-(guanidinomethyl)cyclopropyl)-1,3,4-oxadiazol-2-yl)-7-oxo-1,6-diazabicyclo[3.2.1]octan-6-yl hydrogen sulfate] | more active than Avibactam
CC(C)(N)Cc1nnc([C@@H]2CC[C@@H]3CN2C(=O)N3OS(=O)(=O)O)o1 [Compound 737, (2S,5R)-2-(5-(2-amino-2-methylpropyl)-1,3,4-oxadiazol-2-yl)-7-oxo-1,6-diazabicyclo[3.2.1]octan-6-yl hydrogen sulfate] | more active than Avibactam
N[C@@H]1CN[C@H](c2nnc([C@@H]3CC[C@@H]4CN3C(=O)N4OS(=O)(=O)O)o2)C1 [Compound 760, (2S,5R)-2-(5-((2S,4S)-4-aminopyrrolidin-2-yl)-1,3,4-oxadiazol-2-yl)-7-oxo-1,6-diazabicyclo[3.2.1]octan-6-yl hydrogen sulfate] | more active than Avibactam
N=C(N)NC[C@H](O)c1nnc([C@@H]2CC[C@@H]3CN2C(=O)N3OS(=O)(=O)O)o1 [Compound 732, (2S,5R)-2-(5-((S)-2-guanidino-1-hydroxyethyl)-1,3,4-oxadiazol-2-yl)-7-oxo-1,6-diazabicyclo[3.2.1]octan-6-yl hydrogen sulfate] | more active than Avibactam
O=C1N2C[C@@H](CC[C@H]2c2nnc(CN3CCNCC3)o2)N1OS(=O)(=O)O [Compound 777, (2S,5R)-7-oxo-2-(5-(piperazin-1-ylmethyl)-1,3,4-oxadiazol-2-yl)-1,6-diazabicyclo[3.2.1]octan-6-yl hydrogen sulfate] | more active than Avibactam
O=C1N2C[C@@H](CC[C@H]2c2nnc(CN[C@H]3CCNC3)o2)N1OS(=O)(=O)O [Compound 765, (2S,5R)-7-oxo-2-(5-(((S)-pyrrolidin-3-ylamino)methyl)-1,3,4-oxadiazol-2-yl)-1,6-diazabicyclo[3.2.1]octan-6-yl hydrogen sulfate] | more active than Avibactam
